Results: PubChem BioAssay AID1918933 (Molecular Pharmacology Branch, DTP, NCI, 2023)
pIC50: −log10 of the molar value.

Test system: 186277-243-T-J2-PDC complex spheroid viability
Experiment: Anticancer human tumor 186277-243-T-J2-PDC patient-derived colon adenocarcinoma cell line growth inhibition
Details: for pIC50: curve of first compound; for viability, T/C: stronger effect = lower value
Method in brief: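 Multicellular complex spheroids of tumor cells with human endothelial cells (HUVEC) and mesenchymal stem cells; the LSD1 inhibitor iadademstat was combined with standard-of-care or investigational agents. Top concentration at or near clinical Cmax, half-log dilutions; final DMSO ≤0.25%.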

[1] = second compound 0.1 µM, first compound 0.00316 µM
[2] = second compound 0.1 µM, first compound 0.01 µM
[3] = second compound 0.1 µM, first compound 0.0316 µM
[4] = second compound 0.1 µM, first compound 0.1 µM
[5] = second compound 0.1 µM, first compound 0.316 µM
[6] = second compound 0.1 µM, first compound 1 µM
[7] = second compound 0.316 µM, first compound 0.00316 µM
[8] = second compound 0.316 µM, first compound 0.01 µM
[9] = second compound 0.316 µM, first compound 0.0316 µM
[10] = second compound 0.316 µM, first compound 0.1 µM
[11] = second compound 0.316 µM, first compound 0.316 µM
[12] = second compound 0.316 µM, first compound 1 µM
[13] = second compound 1 µM, first compound 0.00316 µM
[14] = second compound 1 µM, first compound 0.01 µM
[15] = second compound 1 µM, first compound 0.0316 µM
[16] = second compound 1 µM, first compound 0.1 µM
[17] = second compound 1 µM, first compound 0.316 µM
[18] = second compound 1 µM, first compound 1 µM
[19] = second compound 3.16 µM, first compound 0.00316 µM
[20] = second compound 3.16 µM, first compound 0.01 µM
[21] = second compound 3.16 µM, first compound 0.0316 µM
[22] = second compound 3.16 µM, first compound 0.1 µM
[23] = second compound 3.16 µM, first compound 0.316 µM
[24] = second compound 3.16 µM, first compound 1 µM
[25] = second compound 10 µM, first compound 0.00316 µM
[26] = second compound 10 µM, first compound 0.01 µM
[27] = second compound 10 µM, first compound 0.0316 µM
[28] = second compound 10 µM, first compound 0.1 µM
[29] = second compound 10 µM, first compound 0.316 µM
[30] = second compound 10 µM, first compound 1 µM
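Also: 7 day exposure to compounds.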
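For viability, T/C in this document: 100% = DMSO vehicle control viability.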

SMILES: O=C(C=Cc1cccc(S(=O)(=O)Nc2ccccc2)c1)NO + NC1CCC(NC2CC2c2ccccc2)CC1
- pIC50 (second compound 0.1 µM): 6.54
- pIC50 (second compound 0.316 µM): 6.54
- pIC50 (second compound 1 µM): 6.53
- pIC50 (second compound 3.16 µM): 6.52
- pIC50 (second compound 10 µM): 6.55
- viability, T/C (second compound 0.1 µM, first compound 0.00949 µM): 109%
- viability, T/C (second compound 0.1 µM, first compound 0.03 µM): 114%
- viability, T/C (second compound 0.1 µM, first compound 0.0949 µM): 121%
- viability, T/C (second compound 0.1 µM, first compound 0.3 µM): 47.7%
- viability, T/C (second compound 0.1 µM, first compound 0.949 µM): 20.5%
- viability, T/C (second compound 0.1 µM, first compound 3 µM): 5.16%
- viability, T/C (second compound 0.316 µM, first compound 0.00949 µM): 116%
- viability, T/C (second compound 0.316 µM, first compound 0.03 µM): 110%
- viability, T/C (second compound 0.316 µM, first compound 0.0949 µM): 109%
- viability, T/C (second compound 0.316 µM, first compound 0.3 µM): 47%
- viability, T/C (second compound 0.316 µM, first compound 0.949 µM): 15.7%
- viability, T/C (second compound 0.316 µM, first compound 3 µM): 2.43%
- viability, T/C (second compound 1 µM, first compound 0.00949 µM): 113%
- viability, T/C (second compound 1 µM, first compound 0.03 µM): 105%
- viability, T/C (second compound 1 µM, first compound 0.0949 µM): 104%
- viability, T/C (second compound 1 µM, first compound 0.3 µM): 47.1%
- viability, T/C (second compound 1 µM, first compound 0.949 µM): 16.6%
- viability, T/C (second compound 1 µM, first compound 3 µM): 2.3%
- viability, T/C (second compound 3.16 µM, first compound 0.00949 µM): 99.7%
- viability, T/C (second compound 3.16 µM, first compound 0.03 µM): 92%
- viability, T/C (second compound 3.16 µM, first compound 0.0949 µM): 113%
- viability, T/C (second compound 3.16 µM, first compound 0.3 µM): 50.6%
- viability, T/C (second compound 3.16 µM, first compound 0.949 µM): 16%
- viability, T/C (second compound 3.16 µM, first compound 3 µM): 1.48%
- viability, T/C (second compound 10 µM, first compound 0.00949 µM): 104%
- viability, T/C (second compound 10 µM, first compound 0.03 µM): 102%
- viability, T/C (second compound 10 µM, first compound 0.0949 µM): 113%
- viability, T/C (second compound 10 µM, first compound 0.3 µM): 47.3%
- viability, T/C (second compound 10 µM, first compound 0.949 µM): 15%
- viability, T/C (second compound 10 µM, first compound 3 µM): 1.31%

SMILES: Nc1ncn(C2CC(O)C(CO)O2)c(=O)n1 (stereo not given) + NC1CC1c1ccc(-c2cccc(O)c2)cc1
- pIC50 (second compound 0.1 µM): < 6.00
- pIC50 (second compound 0.316 µM): < 6.00
- pIC50 (second compound 1 µM): < 6.00
- pIC50 (second compound 3.16 µM): < 6.00
- pIC50 (second compound 10 µM): < 6.00
- viability, T/C [1]: 108%
- viability, T/C [2]: 103%
- viability, T/C [3]: 112%
- viability, T/C [4]: 106%
- viability, T/C [5]: 148%
- viability, T/C [6]: 159%
- viability, T/C [7]: 100%
- viability, T/C [8]: 102%
- viability, T/C [9]: 114%
- viability, T/C [10]: 138%
- viability, T/C [11]: 143%
- viability, T/C [12]: 150%
- viability, T/C [13]: 104%
- viability, T/C [14]: 109%
- viability, T/C [15]: 107%
- viability, T/C [16]: 119%
- viability, T/C [17]: 137%
- viability, T/C [18]: 157%
- viability, T/C [19]: 100%
- viability, T/C [20]: 95.5%
- viability, T/C [21]: 97.3%
- viability, T/C [22]: 121%
- viability, T/C [23]: 140%
- viability, T/C [24]: 162%
- viability, T/C [25]: 110%
- viability, T/C [26]: 107%
- viability, T/C [27]: 98.6%
- viability, T/C [28]: 112%
- viability, T/C [29]: 124%
- viability, T/C [30]: 148%

SMILES: COc1ccc([C@@H](O)c2cc(-c3ncnc4cc(N5CCOCC5)ccc34)c(F)cc2Cl)nn1 + NC1CC1c1ccc(-c2cccc(O)c2)cc1
- pIC50 (second compound 0.1 µM): 5.27
- pIC50 (second compound 0.316 µM): 5.33
- pIC50 (second compound 1 µM): 5.36
- pIC50 (second compound 3.16 µM): 5.36
- pIC50 (second compound 10 µM): 5.43
- viability, T/C [3]: 105%
- viability, T/C [4]: 109%
- viability, T/C [5]: 112%
- viability, T/C [6]: 96.3%
- viability, T/C (second compound 0.1 µM, first compound 3.16 µM): 81.8%
- viability, T/C (second compound 0.1 µM, first compound 10 µM): 14%
- viability, T/C [9]: 109%
- viability, T/C [10]: 108%
- viability, T/C [11]: 110%
- viability, T/C [12]: 89.1%
- viability, T/C (second compound 0.316 µM, first compound 3.16 µM): 70.8%
- viability, T/C (second compound 0.316 µM, first compound 10 µM): 12.8%
- viability, T/C [15]: 107%
- viability, T/C [16]: 113%
- viability, T/C [17]: 114%
- viability, T/C [18]: 80.9%
- viability, T/C (second compound 1 µM, first compound 3.16 µM): 68.7%
- viability, T/C (second compound 1 µM, first compound 10 µM): 12.9%
- viability, T/C [21]: 110%
- viability, T/C [22]: 118%
- viability, T/C [23]: 97.1%
- viability, T/C [24]: 102%
- viability, T/C (second compound 3.16 µM, first compound 3.16 µM): 64.7%
- viability, T/C (second compound 3.16 µM, first compound 10 µM): 11.7%
- viability, T/C [27]: 97.7%
- viability, T/C [28]: 103%
- viability, T/C [29]: 106%
- viability, T/C [30]: 91.3%
- viability, T/C (second compound 10 µM, first compound 3.16 µM): 57.8%
- viability, T/C (second compound 10 µM, first compound 10 µM): 5.72%

SMILES: O=C(C=Cn1cnc(-c2cc(C(F)(F)F)cc(C(F)(F)F)c2)n1)NNc1cnccn1 + NC1CC1c1ccc(-c2cccc(O)c2)cc1
- pIC50 (second compound 0.1 µM): 7.25
- pIC50 (second compound 0.316 µM): 7.24
- pIC50 (second compound 1 µM): 7.22
- pIC50 (second compound 3.16 µM): 7.23
- pIC50 (second compound 10 µM): 7.28
- viability, T/C [1]: 97.5%
- viability, T/C [2]: 96%
- viability, T/C [3]: 84.8%
- viability, T/C [4]: 15.7%
- viability, T/C [5]: 2.81%
- viability, T/C [6]: 1.29%
- viability, T/C [7]: 104%
- viability, T/C [8]: 105%
- viability, T/C [9]: 88.3%
- viability, T/C [10]: 13.8%
- viability, T/C [11]: 2.94%
- viability, T/C [12]: 1.28%
- viability, T/C [13]: 104%
- viability, T/C [14]: 106%
- viability, T/C [15]: 93.1%
- viability, T/C [16]: 15.5%
- viability, T/C [17]: 3.14%
- viability, T/C [18]: 1.35%
- viability, T/C [19]: 110%
- viability, T/C [20]: 116%
- viability, T/C [21]: 91%
- viability, T/C [22]: 14%
- viability, T/C [23]: 2.92%
- viability, T/C [24]: 1.47%
- viability, T/C [25]: 94.1%
- viability, T/C [26]: 95.2%
- viability, T/C [27]: 78.8%
- viability, T/C [28]: 13.3%
- viability, T/C [29]: 3.41%
- viability, T/C [30]: 1.57%
